Results from article PMC8155809 (The Journal of General Physiology, 2021).

Target: T1, Human TREK-2 (KCNK10) crystal construct (Homo sapiens, UniProt P57789)
T1 construct: “crystal construct” protein (Gly67 to Glu340); made in house
T1 sequence (P57789 67-340 isoform P57789-4): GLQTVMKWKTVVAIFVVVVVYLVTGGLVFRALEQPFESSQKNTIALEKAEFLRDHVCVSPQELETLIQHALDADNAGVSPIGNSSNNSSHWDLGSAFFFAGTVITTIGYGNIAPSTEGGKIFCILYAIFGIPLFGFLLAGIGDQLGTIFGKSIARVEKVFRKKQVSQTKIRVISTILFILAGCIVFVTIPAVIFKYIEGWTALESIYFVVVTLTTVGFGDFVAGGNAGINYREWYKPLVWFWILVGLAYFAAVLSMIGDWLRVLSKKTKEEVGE
Test: Single-channel recordings of purified TREK-2 reconstituted in lipid bilayers
Assay type: biochemical
Conditions: for Po (single-channel open probability) / block of channel (Po): 10 µM NFx; for Po (single-channel open probability): +60 mV; for AC1, area of closed state 1 / AC2, area of closed state 2 / AC3, area of closed state 3 / AC4, area of closed state 4 / AC5, area of closed state 5 / τC1, mean lifetime of closed state 1 / τC2, mean lifetime of closed state 2 / τC3, mean lifetime of closed state 3 / τC4, mean lifetime of closed state 4 / τC5, mean lifetime of closed state 5 / τO, mean open time: 100 μM NFx
Description: Human TREK-2 (KCNK10) “crystal construct” protein (Gly67 to Glu340) was expressed and purified as previously described ([Dong et al., 2015]), with the exception that it was purified in 1% wt/vol n-octyl-β-D-glucoside, 0.1% wt/vol cholesteryl hemisuccinate. 1,2-Diphytanoyl-sn-glycero-3-phosphocholine was dissolved in chloroform to a concentration of 10 mM and stored at −20°C. The GUVs were then made by electroformation in a 1 M sorbitol solution using Vesicle Prep Pro (Nanion Technologies). Purified TREK-2 was then mixed with GUVs to a final concentration of ∼1–5 µg/ml and incubated overnight at 4°C with 0.5 mg/ml Bio-Beads (Bio-Rad) before use.
All electrophysiological recordings were performed with the Nanion Port-a-Patch system connected to an Axopatch 200B amplifier via a Digidata 1440A digitizer (Molecular Devices). Data were filtered at 5 kHz and recorded at a 200-kHz sampling rate with program Clampex (Molecular Devices). Experiments were performed in symmetrical 200 mM KCl and 10 mM HEPES (pH 6.0 with KOH) solutions. Single-channel currents were idealized using 50% threshold criterion with program Clampfit (Molecular Devices) at an imposed resolution of 50 µs. Only one open and one closed level were considered in the analysis; all subconductance states were neglected (these typically comprised less than 1% of open- and closed-level events of channels in the “high PO” mode). Analysis of amplitude and dwell-time distributions was performed in Origin (OriginLab Corporation) and an in-house software written in Mathematica (Wolfram Technologies). Empirical correction for open times due to missed events was performed as described previously ([Davies et al., 1992]). Critical time for burst analysis was determined using Colquhoun and Sakmann criterion ([Colquhoun and Sakmann, 1985]).

## NCCC(Oc1ccc(C(F)(F)F)cc1)c1ccccc1 (stereo not drawn) [NFx, norfluoxetine]
Channel with high Po (Fig. S5B)
  Po (single-channel open probability): 0.70
Channel with low Po (Fig. S5A)
  Po (single-channel open probability): 0.048
high-Po mode
  block of channel (Po): 20 ± 0.02%
Standard mode
  block of channel (Po): 23 ± 0.05%
V 20 mV, high-Po mode
  AC1, area of closed state 1: 74%
  AC2, area of closed state 2: 15.5%
  AC3, area of closed state 3: 4.4%
  AC4, area of closed state 4: 4.9%
  AC5, area of closed state 5: 1.5%
  τC1, mean lifetime of closed state 1: 0.041 ms
  τC2, mean lifetime of closed state 2: 0.30 ms
  τC3, mean lifetime of closed state 3: 1.3 ms
  τC4, mean lifetime of closed state 4: 23 ms
  τC5, mean lifetime of closed state 5: 90 ms
  τO, mean open time: 0.53 ms
V 40 mV, high-Po mode
  AC1, area of closed state 1: 75%
  AC2, area of closed state 2: 13.7%
  AC3, area of closed state 3: 3.3%
  AC4, area of closed state 4: 6.2%
  AC5, area of closed state 5: 2.0%
  τC1, mean lifetime of closed state 1: 0.083 ms
  τC2, mean lifetime of closed state 2: 0.36 ms
  τC3, mean lifetime of closed state 3: 4.8 ms
  τC4, mean lifetime of closed state 4: 39 ms
  τC5, mean lifetime of closed state 5: 160 ms
  τO, mean open time: 0.69 ms
V 60 mV, high-Po mode
  AC1, area of closed state 1: 75%
  AC2, area of closed state 2: 13.9%
  AC3, area of closed state 3: 3.5%
  AC4, area of closed state 4: 5.7%
  AC5, area of closed state 5: 1.6%
  τC1, mean lifetime of closed state 1: 0.059 ms
  τC2, mean lifetime of closed state 2: 0.31 ms
  τC3, mean lifetime of closed state 3: 2.1 ms
  τC4, mean lifetime of closed state 4: 41 ms
  τC5, mean lifetime of closed state 5: 160 ms
  τO, mean open time: 0.60 ms
V 80 mV, high-Po mode
  AC1, area of closed state 1: 76%
  AC2, area of closed state 2: 11.9%
  AC3, area of closed state 3: 1.9%
  AC4, area of closed state 4: 7.7%
  AC5, area of closed state 5: 2.6%
  τC1, mean lifetime of closed state 1: 0.055 ms
  τC2, mean lifetime of closed state 2: 0.32 ms
  τC3, mean lifetime of closed state 3: 2.9 ms
  τC4, mean lifetime of closed state 4: 78 ms
  τC5, mean lifetime of closed state 5: 490 ms
  τO, mean open time: 0.49 ms
V 100 mV, high-Po mode
  AC1, area of closed state 1: 77%
  AC2, area of closed state 2: 9.2%
  AC3, area of closed state 3: 2.5%
  AC4, area of closed state 4: 7.5%
  AC5, area of closed state 5: 4.1%
  τC1, mean lifetime of closed state 1: 0.064 ms
  τC2, mean lifetime of closed state 2: 0.30 ms
  τC3, mean lifetime of closed state 3: 1.9 ms
  τC4, mean lifetime of closed state 4: 72 ms
  τC5, mean lifetime of closed state 5: 220 ms
  τO, mean open time: 0.44 ms
V −20 mV, high-Po mode
  AC1, area of closed state 1: 81%
  AC2, area of closed state 2: 10.7%
  AC3, area of closed state 3: 2.5%
  AC4, area of closed state 4: 5.0%
  AC5, area of closed state 5: 0.6%
  τC1, mean lifetime of closed state 1: 0.061 ms
  τC2, mean lifetime of closed state 2: 0.35 ms
  τC3, mean lifetime of closed state 3: 2.5 ms
  τC4, mean lifetime of closed state 4: 45 ms
  τC5, mean lifetime of closed state 5: 260 ms
  τO, mean open time: 0.54 ms
V −40 mV, high-Po mode
  AC1, area of closed state 1: 85%
  AC2, area of closed state 2: 9.3%
  AC3, area of closed state 3: 1.7%
  AC4, area of closed state 4: 4.2%
  AC5, area of closed state 5: 0.2%
  τC1, mean lifetime of closed state 1: 0.069 ms
  τC2, mean lifetime of closed state 2: 0.35 ms
  τC3, mean lifetime of closed state 3: 2.5 ms
  τC4, mean lifetime of closed state 4: 52 ms
  τC5, mean lifetime of closed state 5: 520 ms
  τO, mean open time: 0.51 ms
V −60 mV, high-Po mode
  AC1, area of closed state 1: 85%
  AC2, area of closed state 2: 9.5%
  AC3, area of closed state 3: 1.2%
  AC4, area of closed state 4: 3.4%
  AC5, area of closed state 5: 0.6%
  τC1, mean lifetime of closed state 1: 0.082 ms
  τC2, mean lifetime of closed state 2: 0.30 ms
  τC3, mean lifetime of closed state 3: 1.6 ms
  τC4, mean lifetime of closed state 4: 44 ms
  τC5, mean lifetime of closed state 5: 230 ms
  τO, mean open time: 0.35 ms
V −80 mV, high-Po mode
  AC1, area of closed state 1: 89%
  AC2, area of closed state 2: 6.0%
  AC3, area of closed state 3: 1.0%
  AC4, area of closed state 4: 2.8%
  AC5, area of closed state 5: 0.8%
  τC1, mean lifetime of closed state 1: 0.110 ms
  τC2, mean lifetime of closed state 2: 0.37 ms
  τC3, mean lifetime of closed state 3: 9.5 ms
  τC4, mean lifetime of closed state 4: 58 ms
  τC5, mean lifetime of closed state 5: 140 ms
  τO, mean open time: 0.27 ms
V −100 mV, high-Po mode
  AC1, area of closed state 1: 88%
  AC2, area of closed state 2: 8.0%
  AC3, area of closed state 3: 0.6%
  AC4, area of closed state 4: 2.2%
  AC5, area of closed state 5: 1.0%
  τC1, mean lifetime of closed state 1: 0.110 ms
  τC2, mean lifetime of closed state 2: 0.37 ms
  τC3, mean lifetime of closed state 3: 3.0 ms
  τC4, mean lifetime of closed state 4: 40 ms
  τC5, mean lifetime of closed state 5: 140 ms
  τO, mean open time: 0.20 ms
